The record followed here is patent publication US9776965B2, “Pyrrolidin-2-one and piperidin-2-one derivatives as 11-beta hydroxysteroid dehydrogenase inhibitors” (Janssen Pharmaceutica N.V., priority 2004, dated 2017).

pIC50: −log10 of the molar value.

The target of series [1] is 11b-HSD1 (Homo sapiens, UniProt P28845). Briefly: Enzymatic assay, 11b-HSD1 dependent conversion of cortisone into cortisol (reductase activity). It counts as biochemical. The note with it: recombinant protein, 2 μM cortisone, 45 min at 37 C; read-out: [C1] HSD1-prot Reduct Score. In a few lines:
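Recombinant human 11b-HSD1 (11 µg) with 2 µM cortisone and 180 µM NADPH in 30 mM Tris-HCl pH 7.2, 1 mM EDTA, incubated 45 min at 37 °C. Cortisol formation was measured by HPLC with a corticosterone internal standard. Compounds were tested from 10^−5 M to 3.10^−9 M, and pIC50 was scored as 1 (<5), 2 (5–6) or 3 (>6).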

The target in series [2] is T1, 11b-HSD2 (Homo sapiens, UniProt P80365).
T1 sequence (P80365 1-405): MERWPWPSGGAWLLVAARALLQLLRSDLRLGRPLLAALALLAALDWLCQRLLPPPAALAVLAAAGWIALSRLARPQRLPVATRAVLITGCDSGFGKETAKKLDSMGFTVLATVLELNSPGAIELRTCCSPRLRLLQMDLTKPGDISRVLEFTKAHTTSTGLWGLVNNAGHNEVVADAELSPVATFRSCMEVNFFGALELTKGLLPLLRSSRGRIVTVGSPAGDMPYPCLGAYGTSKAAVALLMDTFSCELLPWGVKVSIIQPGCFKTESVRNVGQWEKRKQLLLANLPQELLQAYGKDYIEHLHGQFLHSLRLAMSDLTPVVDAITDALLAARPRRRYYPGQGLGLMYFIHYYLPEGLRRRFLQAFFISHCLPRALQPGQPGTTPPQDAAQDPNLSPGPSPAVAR
Briefly: Enzymatic assay, 11b-HSD2 dependent dehydrogenase activity. It counts as biochemical. The note with it: recombinant protein, 100 nM cortisol, 45 min at 37 C; read-out: [C1] HSD2 prot Dehydro Score. The protocol: The effects on the 11b-HSD2 dependent dehydrogenase activity was studied in a reaction mixture containing 0.1M sodium phosphate buffer pH 7.5, 300 μM NAD, 100 nM cortisol (of which 2 nM is 3H-radio labelled), 1 μl drug and/or solvent and 2.5 μg recombinant protein in a final volume of 100 μl.
All incubations were performed for 45 min at 37 C in a water bath. The reaction was stopped by adding 100 μl acetonitrile containing 20 μg corticosterone as internal standard. After centrifugation, the product formation was analysed in the supernatant by HPLC on a Hypersyl BDS-C18 column using 0.05 mM ammonium acetate/methanol (50/50) as solvent. In all of the aforementioned assays, the drugs to be tested were taken from a stock solution and tested at a final concentration ranging from […] to 3.10^−9M. From the thus obtained dose response curves, the pIC50 value was calculated and scored as follows; Score 1=pIC50 value<5, Score 2=pIC50 value in the range of 5 to 6, Score 3=pIC50 value>6. (in this table NT stands for Not Tested).

The target in series [3] is T2, 11b-HSD1 (Mus musculus, UniProt P50172).
T2 construct: Fibroblasts were differentiated into adipocytes; endogenous in cells; host or cells: differentiated 3T3-L1 cells (ATCC-CL-173)
T2 sequence (P50172 whole entry): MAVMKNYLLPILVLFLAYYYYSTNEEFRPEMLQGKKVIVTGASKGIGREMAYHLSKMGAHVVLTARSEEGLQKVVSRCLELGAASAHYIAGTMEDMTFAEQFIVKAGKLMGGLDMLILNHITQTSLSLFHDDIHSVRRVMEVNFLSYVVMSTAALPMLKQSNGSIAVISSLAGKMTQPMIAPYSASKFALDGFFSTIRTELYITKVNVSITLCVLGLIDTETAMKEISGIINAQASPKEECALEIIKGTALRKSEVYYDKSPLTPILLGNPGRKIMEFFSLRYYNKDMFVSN
Briefly: Cellular assay, 11b-HSD1 activity in differentiated 3T3-L1 cells. The note with it: 4 hour pre-incubation, read-out: [C2] HSD1 cellular 3T3-L1 Score. It counts as cell-based. Summed up:
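Differentiated mouse 3T3-L1 adipocytes pre-incubated 4 hours with compound (final 3.10^−9 to 10^−5 M), then 0.5 μCi ³H-cortisone or dehydrocorticosterone added for one hour. Medium extracted with diethyl ether and steroids resolved by HPLC; pIC50 from dose-response curves, reported as scores.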

For series [4], the target named is T1, 11b-HSD2. Briefly: Cellular assay, 11b-HSD2 activity in HepG2 cells. The series is classed as cell-based. Further details: endogenous in cells; host or cells: HepG2 (ATCC HB-8065). The conditions noted are these: 4 hour pre-incubation, read-out: [C2] HSD2 cellular HepG2 Score. The protocol:
The effects on 11b-HSD2 activity was studied in HepG2 and LCC-PK1-cells HepG2-cells (ATCC HB-8065) were seeded in 12 well plates at a density of 100,000 cells/ml and grown at 37 C in a humidified 5% CO2 atmosphere in MEM-Rega-3 medium supplemented with 10% heat inactivated foetal calf serum, 2 mM L-glutamine and sodium bicarbonate). Medium was refreshed twice a week.
Following a 4 hour pre-incubation with test compound, 0.5 μCi ^3H-cortisol or corticosterone, was added to the cultures. One hour later, the medium was extracted on Extrelut^3-columns with 15 ml diethyl ether and the extract was analysed by HPLC as described above.
As for the enzymatic assays, the compounds to be tested were taken from a stock solution and tested at a final concentration ranging from […] to 3.10^−9M. From the thus obtained dose response curves, the pIC50 value was calculated and scored as follows; Score 1=pIC50 value<5, Score 2=pIC50 value in the range of 5 to 6, Score 3=pIC50 value>6. Some of the thus obtained results are summarized in the table below (in this table NT stands for Not Tested).

11b-HSD1 (Homo sapiens, UniProt P28845), sequence (P28845 whole entry): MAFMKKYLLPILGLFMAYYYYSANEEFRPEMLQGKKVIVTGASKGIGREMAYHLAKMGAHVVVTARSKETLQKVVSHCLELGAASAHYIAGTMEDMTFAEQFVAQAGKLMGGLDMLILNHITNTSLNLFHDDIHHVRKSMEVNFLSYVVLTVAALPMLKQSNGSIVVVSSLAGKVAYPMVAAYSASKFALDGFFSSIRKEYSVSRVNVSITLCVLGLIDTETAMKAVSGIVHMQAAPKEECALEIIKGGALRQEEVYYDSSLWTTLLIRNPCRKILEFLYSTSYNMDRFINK

By melting point is commonly meant the temperature, or range, at which the solid turns liquid. The compound `C[C@@H](c1ccccc1)N1CC[C@@H](Cc2c(Cl)cccc2Cl)C1=O` [Compound 14] displayed a melting point of 75 to 76 °C. Besides, on 11b-HSD1 [1], the pIC50 is greater than 6.00. On 11b-HSD2 [2], the pIC50 is less than 5.00. For the same compound, the pIC50 at 11b-HSD1 [3] was greater than 6.00. Further, the pIC50 on 11b-HSD2 [4] was less than 5.00.
Regarding `CC[C@H](c1ccccc1)N1CC[C@@H](Cc2c(Cl)cccc2Cl)C1=O` [Compound 97], the pIC50 was greater than 6.00 on 11b-HSD1 [1], 5.00 to 6.00 at 11b-HSD2 [2], less than 5.00 at 11b-HSD1 [3] and less than 5.00 on 11b-HSD2 [4].
On to `C[C@@H](c1ccccc1)N1CC[C@H](Cc2c(Cl)cccc2Cl)C1=O` [Compound 13], for which the pIC50 at 11b-HSD1 [1] was greater than 6.00; at 11b-HSD2 [2] it was less than 5.00; on 11b-HSD1 [3], greater than 6.00; at 11b-HSD2 [4], less than 5.00.
As for `O=C1C(Cc2ccccc2Cl)CCN1CCc1ccccc1` (stereo not drawn) [Compound 30], the pIC50 at 11b-HSD1 [1] is greater than 6.00; at 11b-HSD2 [2], less than 5.00; on 11b-HSD1 [3], greater than 6.00; at 11b-HSD2 [4] it was less than 5.00.
`O=C1C(Cc2cccc(Cl)c2Cl)CCN1CCc1ccccc1` (stereo not drawn) [Compound 31]: the pIC50 was 5.00 to 6.00 on 11b-HSD1 [1], less than 5.00 at 11b-HSD2 [2], greater than 6.00 at 11b-HSD1 [3] and less than 5.00 at 11b-HSD2 [4].
`Cc1ccccc1C(C)[C@@H]1CCN([C@@H](C)c2ccccc2)C1=O` (stereo partly drawn) [Compound 162]: the pIC50 at 11b-HSD1 [1] was greater than 6.00; at 11b-HSD2 [2], 5.00 to 6.00; at 11b-HSD1 [3], greater than 6.00; at 11b-HSD2 [4] it was less than 5.00.
On to `C[C@@H](c1ccccc1)N1CC[C@@H](Cc2ccccc2Cl)C1=O` [Compound 10], for which the pIC50 was greater than 6.00 at 11b-HSD1 [1], less than 5.00 at 11b-HSD2 [2], greater than 6.00 at 11b-HSD1 [3] and less than 5.00 on 11b-HSD2 [4].
On to `Cc1ccccc1CC1CCN(CCc2ccccc2)C1=O` (stereo not drawn) [Compound 28], for which the pIC50 was less than 5.00 on 11b-HSD1 [1], less than 5.00 on 11b-HSD2 [2], greater than 6.00 at 11b-HSD1 [3] and less than 5.00 on 11b-HSD2 [4].
On to `Cc1ccccc1C[C@@H]1CCN([C@@H](C)c2ccccc2)C1=O` [Compound 1], for which the pIC50 was greater than 6.00 on 11b-HSD1 [1], less than 5.00 at 11b-HSD2 [2], greater than 6.00 on 11b-HSD1 [3] and less than 5.00 on 11b-HSD2 [4].
Consider `O=C1C(Cc2ccccc2Cl)CCN1Cc1ccccc1` (stereo not drawn) [Compound 57], for which the pIC50 at 11b-HSD1 [1] is 5.00 to 6.00; at 11b-HSD2 [2], less than 5.00; at 11b-HSD1 [3] it was greater than 6.00; at 11b-HSD2 [4], less than 5.00.
`O=C1C(Cc2c(Cl)cccc2Cl)CCN1Cc1ccccc1` (stereo not drawn) [Compound 59]: the pIC50 was 5.00 to 6.00 at 11b-HSD1 [1], less than 5.00 at 11b-HSD2 [2], greater than 6.00 at 11b-HSD1 [3] and less than 5.00 on 11b-HSD2 [4].
